Assays:
CK1α = molecular target: T1, CK1α (Homo sapiens, UniProt P48729+Q96SW2); test: Western blot degradation of CK1α in hPBMCs (24 h); type: cell-based; details: compounds at 50 nM and 500 nM
T1 construct: The supernatant was aspirated as the extracted total cell protein; endogenous in cells; host or cells: human peripheral blood mononuclear cells (hPBMCs)
In short: (§1)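 PBMC Western blot, 24 h treatment; test levels 50 nM and 500 nM. Band density ÷ internal control, normalised → % remaining; degradation (%) = 1 − remaining.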

WEE1 = molecular target: T2, WEE1 (Homo sapiens, UniProt P30291+Q96SW2); test: Western blot degradation of WEE1 in hPBMCs (24 h); type: cell-based; details: compounds at 50 nM and 500 nM
T2 construct: The supernatant was aspirated as the extracted total cell protein; endogenous in cells; host or cells: human peripheral blood mononuclear cells (hPBMCs)
In short: as §1

MGC803 cells = test: Inhibition of proliferation of gastric cancer cells MGC803 (cell viability assay, 96 h); type: cell-based, human; details: read-out: inhibitory activity (IC50) against tumor cells proliferation, MGC803
Procedure: (§2) The tumor cells used herein were cultured in a cell culture medium listed in table 2 at 37 °C in an incubator with 5% CO2. Prior to experimentation, all cell lines used were correctly identified by STR profiling, and tested negative for Mycoplasma contamination using a Mycoplasma detection kit through routine screenings.
(§3) The IC50 values of the compounds of the present disclosure (including the compounds in Table 1, and Examples 1-498) were determined using the CellTiter-Meiluncell Luminescent Cell Viability Assay Kit from Dalian Meilun Biotech Co., Ltd. The detailed procedure is as follows: Tumor cells were seeded in 96-well cell culture plates at the densities specified in Table 3. On the following day, the test compounds of the present disclosure were subjected to serial dilution. […] Subsequently, 0.5 μL of the test compound dilution was transferred into the 96-well plate containing the cells, with each well containing 100 μL of cell culture medium. […] Into the 96-well plate, the diluted test compounds and corresponding detection reagents were added, resulting in final test compound concentrations of 500 nM and 10 nM, respectively. The experimental procedure is described below using the diluted 2 μM test compound as an example.
(§4) 0.5 μL of the aforementioned diluted compound of the present disclosure (including the compounds in Table 1, and Examples 1-498) was added to the seeded cells in 100 μL of medium, yielding a final test compound concentration of 10 nM. After the cells were treated with the compounds of the present disclosure for a specified period, the cell viability assay reagent was added to the culture medium according to the kit's instructions to determine cell viability. […] All controls were treated using the same procedure as the compounds of the present disclosure. The growth inhibition curves for the compounds of the present disclosure were plotted using Prism GraphPad software, and the IC50 values were calculated therefrom.

IKZF1 = molecular target: T3, IKZF1 (Homo sapiens, UniProt Q13422+Q96SW2); test: Western blot degradation of IKZF1 in hPBMCs (24 h); type: cell-based; details: compounds at 50 nM and 500 nM
T3 construct: The supernatant was aspirated as the extracted total cell protein; endogenous in cells; host or cells: human peripheral blood mononuclear cells (hPBMCs)
In short: as §1

IKZF2 = molecular target: T4, IKZF2 (Homo sapiens, UniProt Q96SW2+Q9UKS7); test: Western blot degradation of IKZF2 in hPBMCs (24 h); type: cell-based; details: compounds at 50 nM and 500 nM
T4 construct: The supernatant was aspirated as the extracted total cell protein; endogenous in cells; host or cells: human peripheral blood mononuclear cells (hPBMCs)
In short: as §1

MM.1S cells = test: Inhibition of proliferation of multiple myeloma cells MM.1S (cell viability assay, 96 h); type: cell-based, human; details: read-out: inhibitory activity (IC50) against tumor cells proliferation, MM.1S
IKZF3 = molecular target: T5, IKZF3 (Homo sapiens, UniProt Q96SW2+Q9UKT9); test: Western blot degradation of IKZF3 in hPBMCs (24 h); type: cell-based; details: compounds at 50 nM and 500 nM
T5 construct: The supernatant was aspirated as the extracted total cell protein; endogenous in cells; host or cells: human peripheral blood mononuclear cells (hPBMCs)
In short: as §1

GSPT1 = molecular target: T6, GSPT1 (Homo sapiens, UniProt P15170+Q96SW2); test: Western blot degradation of GSPT1 in hPBMCs (24 h); type: cell-based; details: compounds at 50 nM and 500 nM
T6 construct: The supernatant was aspirated as the extracted total cell protein; endogenous in cells; host or cells: human peripheral blood mononuclear cells (hPBMCs)
In short: as §1

Jurkat cells = test: Inhibition of proliferation of T lymphocytic leukemia cells Jurkat (cell viability assay, 96 h); type: cell-based, human; details: read-out: inhibitory activity (IC50) against tumor cells proliferation, Jurkat
MV-4-11 cells = test: Inhibition of proliferation of myeloid monocytic leukemia cells MV-4-11 (cell viability assay, 96 h); type: cell-based, human; details: read-out: inhibitory activity (IC50) against tumor cells proliferation, MV-4-11
Procedure: as §2, §3, §4

T1 sequence (P48729 whole entry): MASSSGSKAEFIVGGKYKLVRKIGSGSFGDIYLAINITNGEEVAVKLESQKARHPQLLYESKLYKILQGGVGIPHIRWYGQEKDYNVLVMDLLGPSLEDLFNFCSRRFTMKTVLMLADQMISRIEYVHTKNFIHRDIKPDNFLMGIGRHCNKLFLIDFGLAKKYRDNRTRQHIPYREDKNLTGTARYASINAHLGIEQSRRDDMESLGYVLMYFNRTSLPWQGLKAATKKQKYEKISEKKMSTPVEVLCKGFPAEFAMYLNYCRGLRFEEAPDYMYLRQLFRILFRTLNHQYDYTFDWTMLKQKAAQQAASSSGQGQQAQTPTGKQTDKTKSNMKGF
T1 sequence (Q96SW2 whole entry): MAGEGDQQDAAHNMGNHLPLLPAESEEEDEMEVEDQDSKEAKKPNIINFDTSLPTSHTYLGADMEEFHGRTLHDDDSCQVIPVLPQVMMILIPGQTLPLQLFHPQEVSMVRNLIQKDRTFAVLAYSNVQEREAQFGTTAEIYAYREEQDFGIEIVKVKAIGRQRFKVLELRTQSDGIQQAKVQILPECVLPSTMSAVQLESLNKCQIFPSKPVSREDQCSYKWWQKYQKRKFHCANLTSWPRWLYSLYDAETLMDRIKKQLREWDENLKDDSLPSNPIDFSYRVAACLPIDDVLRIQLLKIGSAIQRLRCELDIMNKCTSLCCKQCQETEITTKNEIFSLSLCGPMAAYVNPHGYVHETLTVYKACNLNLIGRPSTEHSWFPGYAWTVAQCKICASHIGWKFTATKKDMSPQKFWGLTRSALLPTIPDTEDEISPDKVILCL
T1 sequence (Q16531 whole entry partner): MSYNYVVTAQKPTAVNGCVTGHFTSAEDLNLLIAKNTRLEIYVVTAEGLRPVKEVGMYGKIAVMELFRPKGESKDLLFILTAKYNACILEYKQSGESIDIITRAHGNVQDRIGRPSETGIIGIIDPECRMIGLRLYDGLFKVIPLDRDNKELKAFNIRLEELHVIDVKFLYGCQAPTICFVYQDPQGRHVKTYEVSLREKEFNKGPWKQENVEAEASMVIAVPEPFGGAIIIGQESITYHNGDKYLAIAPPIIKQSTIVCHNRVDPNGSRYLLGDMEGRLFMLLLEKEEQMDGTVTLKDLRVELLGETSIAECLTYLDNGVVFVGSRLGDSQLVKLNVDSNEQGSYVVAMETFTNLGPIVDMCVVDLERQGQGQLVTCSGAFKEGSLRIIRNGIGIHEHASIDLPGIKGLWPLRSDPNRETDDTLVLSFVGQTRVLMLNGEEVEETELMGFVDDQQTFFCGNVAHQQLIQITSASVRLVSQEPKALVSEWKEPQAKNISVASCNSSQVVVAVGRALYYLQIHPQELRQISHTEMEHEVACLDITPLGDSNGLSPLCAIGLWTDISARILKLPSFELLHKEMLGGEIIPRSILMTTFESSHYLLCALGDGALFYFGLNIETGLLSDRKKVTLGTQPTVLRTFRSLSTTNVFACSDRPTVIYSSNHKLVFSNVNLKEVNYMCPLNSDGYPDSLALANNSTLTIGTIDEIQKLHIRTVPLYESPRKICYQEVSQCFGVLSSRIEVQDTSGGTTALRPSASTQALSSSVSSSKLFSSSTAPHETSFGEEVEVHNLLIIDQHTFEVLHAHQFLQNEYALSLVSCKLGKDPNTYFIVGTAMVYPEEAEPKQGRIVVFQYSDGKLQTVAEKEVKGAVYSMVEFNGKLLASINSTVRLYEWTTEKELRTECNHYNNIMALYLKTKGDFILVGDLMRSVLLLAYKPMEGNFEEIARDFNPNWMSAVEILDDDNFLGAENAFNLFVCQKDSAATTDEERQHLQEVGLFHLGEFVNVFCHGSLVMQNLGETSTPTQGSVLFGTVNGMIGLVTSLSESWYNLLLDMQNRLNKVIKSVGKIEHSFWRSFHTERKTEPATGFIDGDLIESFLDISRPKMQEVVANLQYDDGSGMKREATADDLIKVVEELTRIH
T6 sequence (P15170 whole entry): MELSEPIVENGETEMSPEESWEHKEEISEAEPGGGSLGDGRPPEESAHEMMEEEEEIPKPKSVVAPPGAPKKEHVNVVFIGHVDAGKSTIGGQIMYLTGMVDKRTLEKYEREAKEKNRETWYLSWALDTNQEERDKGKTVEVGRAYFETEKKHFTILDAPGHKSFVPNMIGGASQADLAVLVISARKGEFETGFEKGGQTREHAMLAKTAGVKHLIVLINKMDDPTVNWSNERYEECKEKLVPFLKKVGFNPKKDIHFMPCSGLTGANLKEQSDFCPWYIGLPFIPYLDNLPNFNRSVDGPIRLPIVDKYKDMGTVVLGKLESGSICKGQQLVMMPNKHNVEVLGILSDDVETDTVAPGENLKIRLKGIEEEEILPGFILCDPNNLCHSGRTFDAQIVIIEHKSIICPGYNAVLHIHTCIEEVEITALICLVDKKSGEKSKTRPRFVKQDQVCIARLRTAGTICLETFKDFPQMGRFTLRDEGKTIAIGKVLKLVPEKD
T6 sequence (Q96SW2 whole entry): as the sequence (Q96SW2 whole entry) above
T6 sequence (Q16531 whole entry partner): as the sequence (Q16531 whole entry partner) above
T5 sequence (Q9UKT9 whole entry): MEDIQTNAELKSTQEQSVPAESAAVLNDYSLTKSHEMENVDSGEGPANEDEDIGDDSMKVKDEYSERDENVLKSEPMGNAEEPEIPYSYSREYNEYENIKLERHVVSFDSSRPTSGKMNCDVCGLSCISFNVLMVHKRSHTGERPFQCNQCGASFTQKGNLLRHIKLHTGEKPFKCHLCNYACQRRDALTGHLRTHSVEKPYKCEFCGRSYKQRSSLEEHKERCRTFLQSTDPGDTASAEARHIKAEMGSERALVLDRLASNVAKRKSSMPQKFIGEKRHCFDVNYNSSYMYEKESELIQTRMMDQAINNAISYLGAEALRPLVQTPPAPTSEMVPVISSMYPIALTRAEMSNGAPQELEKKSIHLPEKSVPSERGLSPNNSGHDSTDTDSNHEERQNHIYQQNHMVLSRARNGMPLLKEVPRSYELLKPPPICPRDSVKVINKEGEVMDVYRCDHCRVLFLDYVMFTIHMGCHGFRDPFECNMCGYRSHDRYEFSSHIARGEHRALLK
T5 sequence (Q96SW2 whole entry): as the sequence (Q96SW2 whole entry) above
T5 sequence (Q16531 whole entry partner): as the sequence (Q16531 whole entry partner) above
T3 sequence (Q13422 whole entry): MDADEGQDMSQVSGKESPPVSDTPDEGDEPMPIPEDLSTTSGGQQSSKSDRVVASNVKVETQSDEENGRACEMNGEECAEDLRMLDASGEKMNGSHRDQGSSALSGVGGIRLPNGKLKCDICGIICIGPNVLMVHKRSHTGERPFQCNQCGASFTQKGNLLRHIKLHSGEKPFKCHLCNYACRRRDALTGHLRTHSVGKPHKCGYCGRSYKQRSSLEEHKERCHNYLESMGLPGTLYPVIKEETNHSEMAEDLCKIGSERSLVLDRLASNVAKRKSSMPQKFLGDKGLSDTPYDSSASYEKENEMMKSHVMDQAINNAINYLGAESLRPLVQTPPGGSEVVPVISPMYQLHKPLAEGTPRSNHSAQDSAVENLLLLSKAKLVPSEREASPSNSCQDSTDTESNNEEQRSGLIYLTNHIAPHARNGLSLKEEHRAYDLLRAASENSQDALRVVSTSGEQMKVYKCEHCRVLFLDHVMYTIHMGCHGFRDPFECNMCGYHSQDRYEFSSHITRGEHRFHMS
T3 sequence (Q96SW2 whole entry): as the sequence (Q96SW2 whole entry) above
T3 sequence (Q16531 whole entry partner): as the sequence (Q16531 whole entry partner) above
T4 sequence (Q9UKS7 whole entry): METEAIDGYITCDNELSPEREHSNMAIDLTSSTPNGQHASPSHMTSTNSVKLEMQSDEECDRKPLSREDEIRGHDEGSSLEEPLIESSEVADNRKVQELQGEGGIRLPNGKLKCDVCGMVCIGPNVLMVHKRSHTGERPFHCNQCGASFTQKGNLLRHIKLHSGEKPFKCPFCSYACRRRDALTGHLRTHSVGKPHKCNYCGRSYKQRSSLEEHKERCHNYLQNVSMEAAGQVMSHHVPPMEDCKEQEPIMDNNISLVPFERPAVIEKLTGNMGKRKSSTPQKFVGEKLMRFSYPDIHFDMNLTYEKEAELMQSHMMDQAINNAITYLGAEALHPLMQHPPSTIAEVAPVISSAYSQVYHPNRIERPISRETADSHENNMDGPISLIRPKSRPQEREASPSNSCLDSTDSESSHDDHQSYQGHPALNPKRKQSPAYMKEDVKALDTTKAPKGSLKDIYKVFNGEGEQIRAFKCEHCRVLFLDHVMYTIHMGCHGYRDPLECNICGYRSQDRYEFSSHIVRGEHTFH
T4 sequence (Q96SW2 whole entry): as the sequence (Q96SW2 whole entry) above
T4 sequence (Q16531 whole entry partner): as the sequence (Q16531 whole entry partner) above

Row | Structure (SMILES) | CK1α substrate protein remaining % (CK1α) | WEE1 substrate protein remaining % (WEE1) | IC50 (MGC803 cells) [nM] | IKZF1 substrate protein remaining % (IKZF1) | IKZF2 substrate protein remaining % (IKZF2) | IC50 (MM.1S cells) [nM] | IKZF3 substrate protein remaining % (IKZF3) | GSPT1 substrate protein remaining % (GSPT1) | IC50 (Jurkat cells) [nM] | IC50 (MV-4-11 cells) [nM]
1 | O=C1CCN(N2Cc3cc(CN4CCN(c5cccc(Cl)c5Cl)CC4)ccc3C2=O)C(=O)N1 [GT-04853, 1-(5-((4-(2,3-dichlorophenyl)piperazin-1-yl)methyl)-1-oxoisoindolin-2-yl)dihydropyrimidine-2,4(1H,3H)-dione] | B (80%< substrate protein remaining % ≤100%) | A (0% ≤ substrate protein remaining % ≤80%) | 500 to 1000 | A (0% ≤ substrate protein remaining % ≤80%) | A (0% ≤ substrate protein remaining % ≤80%) | 100 to 300 | B (80%< substrate protein remaining % ≤100%) | A (0% ≤ substrate protein remaining % ≤80%) | – | –
2 | O=C1CCN(N2Cc3cc(CN4CCN(c5cccc6sccc56)CC4)ccc3C2=O)C(=O)N1 [GT-04866, 1-(5-((4-(benzo[b]thiophen-4-yl)piperazin-1-yl)methyl)-1-oxoisoindolin-2-yl)dihydropyrimidine-2,4(1H,3H)-dione] | B (80%< substrate protein remaining % ≤100%) | A (0% ≤ substrate protein remaining % ≤80%) | 300 to 500 | A (0% ≤ substrate protein remaining % ≤80%) | B (80%< substrate protein remaining % ≤100%) | 100 to 300 | B (80%< substrate protein remaining % ≤100%) | A (0% ≤ substrate protein remaining % ≤80%) | 300 to 500 | –
3 | O=C1CCN(N2Cc3cc(CN4CC=C(c5cccs5)CC4)ccc3C2=O)C(=O)N1 [GT-04868, 1-(1-oxo-5-((4-(thiophen-2-yl)-3,6-dihydropyridin-1(2H)-yl)methyl)isoindolin-2-yl)dihydropyrimidine-2,4(1H,3H)-dione] | A (0% ≤ substrate protein remaining % ≤80%) | A (0% ≤ substrate protein remaining % ≤80%) | 300 to 500 | A (0% ≤ substrate protein remaining % ≤80%) | B (80%< substrate protein remaining % ≤100%) | 100 to 300 | B (80%< substrate protein remaining % ≤100%) | A (0% ≤ substrate protein remaining % ≤80%) | 300 to 500 | –
4 | Cc1ccc(C2=CCN(Cc3ccc4c(c3)CN(N3CCC(=O)NC3=O)C4=O)CC2)s1 [GT-04869, 1-(5-((4-(5-methylthiophen-2-yl)-3,6-dihydropyridin-1(2H)-yl)methyl)-1-oxoisoindolin-2-yl)dihydropyrimidine-2,4(1H,3H)-dione] | B (80%< substrate protein remaining % ≤100%) | A (0% ≤ substrate protein remaining % ≤80%) | 300 to 500 | A (0% ≤ substrate protein remaining % ≤80%) | A (0% ≤ substrate protein remaining % ≤80%) | 50 to 100 | A (0% ≤ substrate protein remaining % ≤80%) | A (0% ≤ substrate protein remaining % ≤80%) | 300 to 500 | –
5 | Cc1ccsc1C1=CCN(Cc2ccc3c(c2)CN(N2CCC(=O)NC2=O)C3=O)CC1 [GT-04870, 1-(5-((4-(3-methylthiophen-2-yl)-3,6-dihydropyridin-1(2H)-yl)methyl)-1-oxoisoindolin-2-yl)dihydropyrimidine-2,4(1H,3H)-dione] | B (80%< substrate protein remaining % ≤100%) | A (0% ≤ substrate protein remaining % ≤80%) | 100 to 300 | A (0% ≤ substrate protein remaining % ≤80%) | A (0% ≤ substrate protein remaining % ≤80%) | 50 to 100 | A (0% ≤ substrate protein remaining % ≤80%) | A (0% ≤ substrate protein remaining % ≤80%) | 100 to 300 | –
6 | O=C1CCN(N2Cc3cc(CN4CC=C(c5ccsc5)CC4)ccc3C2=O)C(=O)N1 [GT-04871, 1-(1-oxo-5-((4-(thiophen-3-yl)-3,6-dihydropyridin-1(2H)-yl)methyl)isoindolin-2-yl)dihydropyrimidine-2,4(1H,3H)-dione] | B (80%< substrate protein remaining % ≤100%) | A (0% ≤ substrate protein remaining % ≤80%) | 300 to 500 | A (0% ≤ substrate protein remaining % ≤80%) | B (80%< substrate protein remaining % ≤100%) | 100 to 300 | B (80%< substrate protein remaining % ≤100%) | A (0% ≤ substrate protein remaining % ≤80%) | 300 to 500 | –
7 | Cc1cscc1C1=CCN(Cc2ccc3c(c2)CN(N2CCC(=O)NC2=O)C3=O)CC1 [GT-04872, 1-(5-((4-(4-methylthiophen-3-yl)-3,6-dihydropyridin-1(2H)-yl)methyl)-1-oxoisoindolin-2-yl)dihydropyrimidine-2,4(1H,3H)-dione] | B (80%< substrate protein remaining % ≤100%) | A (0% ≤ substrate protein remaining % ≤80%) | 100 to 300 | A (0% ≤ substrate protein remaining % ≤80%) | B (80%< substrate protein remaining % ≤100%) | 10 to 50 | B (80%< substrate protein remaining % ≤100%) | A (0% ≤ substrate protein remaining % ≤80%) | 100 to 300 | –
8 | O=C1CCN(N2Cc3cc(CN4CCN(C(c5ccccc5)c5ccccn5)CC4)ccc3C2=O)C(=O)N1 (centres unmarked) [GT-04890, 1-(1-oxo-5-((4-(phenyl(pyridin-2-yl)methyl)piperazin-1-yl)methyl)isoindolin-2-yl)dihydropyrimidine-2,4(1H,3H)-dione] | B (80%< substrate protein remaining % ≤100%) | B (80%< substrate protein remaining % ≤100%) | 500 to 1000 | A (0% ≤ substrate protein remaining % ≤80%) | A (0% ≤ substrate protein remaining % ≤80%) | 100 to 300 | B (80%< substrate protein remaining % ≤100%) | A (0% ≤ substrate protein remaining % ≤80%) | – | –
9 | O=C1CCN(N2Cc3cc(CN4CCC(c5cccc(Cl)c5Cl)CC4)ccc3C2=O)C(=O)N1 [GT-06893, 1-(5-((4-(2,3-dichlorophenyl)piperidin-1-yl)methyl)-1-oxoisoindolin-2-yl)dihydropyrimidine-2,4(1H,3H)-dione] | B (80%< substrate protein remaining % ≤100%) | B (80%< substrate protein remaining % ≤100%) | – | A (0% ≤ substrate protein remaining % ≤80%) | A (0% ≤ substrate protein remaining % ≤80%) | – | B (80%< substrate protein remaining % ≤100%) | A (0% ≤ substrate protein remaining % ≤80%) | 500 to 1000 | 100 to 300
10 | O=C1CCN(N2Cc3cc(CN4CCC(c5cccc(F)c5Cl)CC4)ccc3C2=O)C(=O)N1 [GT-06894, 1-(5-((4-(2-chloro-3-fluorophenyl)piperidin-1-yl)methyl)-1-oxoisoindolin-2-yl)dihydropyrimidine-2,4(1H,3H)-dione] | B (80%< substrate protein remaining % ≤100%) | B (80%< substrate protein remaining % ≤100%) | – | A (0% ≤ substrate protein remaining % ≤80%) | B (80%< substrate protein remaining % ≤100%) | – | B (80%< substrate protein remaining % ≤100%) | A (0% ≤ substrate protein remaining % ≤80%) | 500 to 1000 | 300 to 500
